Results from US6211151A, “Peptides with organo-protective activity, a process for preparation thereof and their use in therapy” (priority 1992, dated 2001).
No end group written: not given here.

What was measured:
[1] = system: female mice; assay: Acute toxicity; type: in vivo; conditions: 8, 25 and 50 μg/kg b.w., i.v.; observed 15 days
Description: Acute toxicity of synthetic peptides was determined in female mice (weight ca. 20 g). Groups of 6 animals were used for each experiment and control.
Peptides Seq.Id.No: 2,3,4 and 6 were applied in a dosage of 8, 25 and 50 μg/kg b.w., i.v. Control group was treated with saline (0.9%, 5.0 ml/kg b.w.).

[2] = system: NMRI-Hannover female mice; assay: Influence on vitamin A induced malformation; type: in vivo; conditions: peptide alone, 10 μg or 10 ng/kg b.w., i.p., tenth day of pregnancy
Description: 12. Influence on induced malformation
NMRI-Hannover female mice, two months old, 25 g b.w., but not previously exposed to copulation were used in all experiments. The female mice in the estrus phase were mated overnight with well experienced healthy male mice. The mice were sacrified after 20 days of pregnancy.
Vitamin A was applied in a dose of 15700 U/kg b.w., i.m., at tenth day of the pregnancy (0.05 ml/kg b.w.). Peptide Seq.Id.No: 4 was given simultaneously in a dosage of 10 μg or 10 ng/kg b.w.,i.p.
Control: saline 5.0 ml/kg b.w., i.p.
Animals non treated with vitamin A receiving at the same time i.p. saline or peptide 4 in the same dosage served as healthy control.

[3] = system: Albino Wistar (male) rats; assay: Gastric ulcer induced by restraint stress; type: in vivo, rat; conditions: 10 μg or 10 ng/kg b.w., i.p. or i.g., 1 hour before 48 hours immobilization; even at 10 ng/kg
Description: 1.) Gastric ulcer induced by restraint stress
Albino Wistar (male) rats (180-200 g), were used in the experiments. All the animals were immobilized in a supine position for 48 hours at room temperature. Immediately thereafter they were sacrified and the lesions measured. The peptides Seq. Id. No: 4, 6 and 2 were applied in dosage of 10 μg or 10 ng/kg b.w., i.p. or i.g. 1 hour before noxious procedure.

[4] = system: Wistar male rats; assay: Turpentine induced buccal edemas; type: in vivo, rat; conditions: 10 μg/kg b.w., i.p. and i.g., 1 hour before turpentine; measured 24 hours after induction
Description: 3. Turpentine induced buccal edemas
Wistar male rats (180-240 g), N=10 in each group. Turpentine was given intramucosally 0.02 ml/rat. Control: 0.9% saline intramucosally (0.02 ml/rat, 2×). Peptides Seq. Id. No: 2 and 4 were applied in a dose of 10 μg and 10 ng/kg, i.p. and i.g., 1 hour before turpentine. Buccal edemas were measured 24 hours after edema induction. Statistical analysis: Mann-Whitney test. The investigated peptides were effective in a dosage of 10 μg/kg b.w.

## EPPPLKPA [Seq. Id. No: 6]
[1]
  signs of toxicity or death: no signs of toxicity or death

## LEPPPLKPADALGV [Seq. Id. No: 4]
[1]
  signs of toxicity or death: no signs of toxicity or death
[2]
  malformation in animals not treated with vitamin A: No malformation

## LEPPPLKPADDALGV [Seq.Id.No: 3]
[1]
  signs of toxicity or death: no signs of toxicity or death

## Seq. Id. No: 2: synthetic peptide of 8 to 15 amino acid residues with BPC-type activity; sequence not printed in this text (GEPPPGKPADDAGLV)
[3]
  protection against restraint stress gastric lesions: strongly protective
[4]
  effect on buccal edemas: effective
[1]
  signs of toxicity or death: no signs of toxicity or death
